The structures appear in SMILES notation.

Our source for the Ki and inhibition values is ChEMBL document CHEMBL1147585, “Potent imidazole and triazole CB1 receptor antagonists related to SR141716” (Bioorg Med Chem Lett, 2004).

The first experiment deals with T1, Cannabinoid receptor 1 (Homo sapiens, UniProt P21554). The experiment can be described thus: Evaluated for binding affinity towards human Cannabinoid receptor 1.
T1 sequence (P21554 whole entry): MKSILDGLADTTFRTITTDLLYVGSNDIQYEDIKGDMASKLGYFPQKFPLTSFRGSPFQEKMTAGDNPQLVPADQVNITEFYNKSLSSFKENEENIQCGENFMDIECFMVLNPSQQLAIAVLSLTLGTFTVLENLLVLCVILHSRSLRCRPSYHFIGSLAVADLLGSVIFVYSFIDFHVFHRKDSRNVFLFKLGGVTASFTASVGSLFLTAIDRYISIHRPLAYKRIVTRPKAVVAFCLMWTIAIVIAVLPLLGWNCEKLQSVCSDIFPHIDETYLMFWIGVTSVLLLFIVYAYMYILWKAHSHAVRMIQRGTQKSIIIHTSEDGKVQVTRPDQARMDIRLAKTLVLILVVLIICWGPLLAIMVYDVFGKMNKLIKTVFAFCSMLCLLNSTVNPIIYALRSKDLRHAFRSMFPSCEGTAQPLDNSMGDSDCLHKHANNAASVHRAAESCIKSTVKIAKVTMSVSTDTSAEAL
For orientation: Ki means the equilibrium dissociation constant of an inhibitor or competing ligand from its target. A lower Ki goes with a stronger hold on the target. `O=C(NC1CCCCC1)c1cn(-c2ccc(Cl)cc2)c(-c2ccc(Cl)cc2Cl)n1` returned a Ki of 48 nM.
`O=C(NN1CC2CCCC2C1)c1cn(-c2ccc(Cl)cc2)c(-c2ccc(Cl)cc2Cl)n1` (configuration not stated) had a Ki of 66 nM.
`COc1cc(Cl)ccc1-c1nc(C(=O)NN2CC3CCCC3C2)nn1-c1ccc(Cl)cc1Cl` (configuration not stated) registered a Ki of 270 nM.
Turning to `O=C(NN1CCCCC1)c1cn(-c2ccc(Cl)cc2)c(-c2ccc(Cl)cc2Cl)n1`, the Ki turned out to be 85 nM.
Still for that read-out and setting: with `Cc1c(C(=O)Nc2ccncc2)nn(-c2ccc(Cl)cc2Cl)c1-c1ccc(Cl)cc1` the figure was 85 nM; with `C#Cc1c(C(=O)NN2CC3CCCC3C2)nc(-c2ccc(Cl)cc2Cl)n1-c1ccc(Cl)cc1` (configuration not stated), 770 nM; with `Cc1c(C(=O)NCCc2ccc(F)cc2)nn(-c2ccc(Cl)cc2Cl)c1-c1ccc(Cl)cc1`, 91 nM.
For the compound `CC(NC(=O)c1nc(-c2ccc(Cl)cc2Cl)n(-c2ccc(Cl)cc2)n1)c1ccc(Cl)cc1` (configuration not stated), the Ki came to 66 nM.
`O=C(NN1CCCCCC1)c1cn(-c2ccc(Cl)cc2)c(-c2ccc(Cl)cc2Cl)n1`: the inhibition constant (Ki) was determined as 78 nM.
With `Cc1c(C(=O)NC(C)c2ccc(Cl)cc2)nc(-c2ccc(Cl)cc2Cl)n1-c1ccc(Cl)cc1` (configuration not stated), the Ki stood at 33 nM.
`Cc1c(C(=O)NN2CC3CCCC3C2)nn(-c2ccc(Cl)cc2Cl)c1-c1ccc(Cl)cc1` (configuration not stated) yielded a Ki of 5 nM.
`O=C(c1nc(-c2ccc(Cl)cc2)n(-c2ccc(Cl)cc2Cl)n1)N1CCN(c2cccc(C(F)(F)F)c2)CC1` gave a Ki of 32 nM.
For the compound `N#Cc1c(C(=O)NN2CC3CCCC3C2)nc(-c2ccc(Cl)cc2Cl)n1-c1ccc(Cl)cc1` (configuration not stated), the affinity, expressed as Ki, was 9 nM.
On to `O=C(NC1CCc2ccccc21)c1nc(-c2ccc(Cl)cc2Cl)n(-c2ccc(Cl)cc2)n1` (configuration not stated), for which the Ki was determined as 101 nM.
Consider `Cc1c(C(=O)NC2CCCCC2)nn(-c2ccc(Cl)cc2Cl)c1-c1ccc(Cl)cc1`, for which the Ki was found to be 42 nM.
`O=C(NN1CC2CCCC2C1)c1nc(-c2ccc(Cl)cc2Cl)n(-c2ccc(Cl)cc2)c1Br` (configuration not stated) displayed a Ki of 11 nM.
In turn, `CC1CCC(NC(=O)c2nc(-c3ccc(Cl)cc3Cl)n(-c3ccc(Cl)cc3)n2)CC1` (configuration not stated) came in with a Ki of 94 nM.
As for `Cc1c(C(=O)NC(C)C(C)C)nn(-c2ccc(Cl)cc2Cl)c1-c1ccc(Cl)cc1` (configuration not stated), the Ki is 41 nM.
On the same count and under the same terms, next, `O=C(NC1CCN(Cc2ccccc2)C1)c1nc(-c2ccc(Cl)cc2Cl)n(-c2ccc(Cl)cc2)n1` (configuration not stated): 29 nM; `Cc1c(C(=O)NN2CCCCCC2)nn(-c2ccc(Cl)cc2Cl)c1-c1ccc(Cl)cc1`: 14 nM.
Turning to `O=C(NN1CC2CCCC2C1)c1nc(-c2ccc(Cl)cc2Cl)n(-c2ccc(Cl)cc2)n1` (configuration not stated), the inhibition constant (Ki) was determined as 137 nM.
`Cc1c(C(=O)N(C)C2CCCCC2)nn(-c2ccc(Cl)cc2Cl)c1-c1ccc(Cl)cc1` had a Ki of 100 nM.

In a further experiment the target is T1, Cannabinoid receptor 1. The experiment can be described thus: Evaluated for binding affinity towards human Cannabinoid receptor 1 at a concentration of 20 uM.
Broadly, the inhibition is the change of the read-out against control, counted positive when it falls. High values mean a response far below the control, low ones a response near the control. `O=C(NN1CCCCCC1)c1nc(-c2ccc(Cl)cc2)n(-c2ccc(Cl)cc2Cl)n1` showed an inhibition of 43%.
`Cc1c(C(=O)NCCO)nn(-c2ccc(Cl)cc2Cl)c1-c1ccc(Cl)cc1` had an inhibition of 69%.
In turn, `Cc1c(C(=O)NCCN(C)C)nn(-c2ccc(Cl)cc2Cl)c1-c1ccc(Cl)cc1` showed an inhibition of 70%.
Still for that read-out and setting: with `CN(C)CCNC(=O)c1cn(-c2ccc(Cl)cc2)c(-c2ccc(Cl)cc2Cl)n1` the figure was 48%; with `CN(C)CCNC(=O)c1nc(-c2ccc(Cl)cc2Cl)n(-c2ccc(Cl)cc2)n1`, 49%.
